Measurements from PubChem BioAssay (NCI).
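Grown in 96-well plates, cells were treated for 48 hours with each compound at five concentrations. Insufficient inhibition: endpoint recorded as highest concentration tested. TGI: concentration producing complete growth inhibition.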

Tests used:
Experiment in all cases: NCI-60 cell line screen, 48 h
786-0 renal = system: 786-0 renal
A498 renal = system: A498 renal
A549 NSCLC = system: A549 NSCLC
BT-549 breast = system: BT-549 breast
COLO 205 colon = system: COLO 205 colon
DU-145 prostate = system: DU-145 prostate
EKVX NSCLC = system: EKVX NSCLC
HCC-2998 colon = system: HCC-2998 colon
HCT-116 colon = system: HCT-116 colon
HCT-15 colon = system: HCT-15 colon
HOP-62 NSCLC = system: HOP-62 NSCLC
HOP-92 NSCLC = system: HOP-92 NSCLC
HT29 colon = system: HT29 colon
KM12 colon = system: KM12 colon
M14 melanoma = system: M14 melanoma
MALME-3M melanoma = system: MALME-3M melanoma
MCF7 breast = system: MCF7 breast
MDA-MB-231 breast = system: MDA-MB-231 breast
MDA-MB-435 = system: MDA-MB-435
MDA-N = system: MDA-N
NCI-H226 lung = system: NCI-H226 lung
NCI-H460 lung = system: NCI-H460 lung
NCI-H522 lung = system: NCI-H522 lung
OVCAR-3 ovarian = system: OVCAR-3 ovarian
OVCAR-4 ovarian = system: OVCAR-4 ovarian
OVCAR-5 ovarian = system: OVCAR-5 ovarian
PC-3 prostate = system: PC-3 prostate
SK-MEL-2 melanoma = system: SK-MEL-2 melanoma
SK-MEL-5 melanoma = system: SK-MEL-5 melanoma
SK-OV-3 ovarian = system: SK-OV-3 ovarian
SN12C renal = system: SN12C renal
SNB-19 CNS = system: SNB-19 CNS
SW-620 colon = system: SW-620 colon
TK-10 renal = system: TK-10 renal
UACC-257 melanoma = system: UACC-257 melanoma
UO-31 renal = system: UO-31 renal
ACHN renal = system: ACHN renal
CAKI-1 renal = system: CAKI-1 renal
CCRF-CEM leukemia = system: CCRF-CEM leukemia
HL-60(TB) leukemia = system: HL-60(TB) leukemia
HS 578T breast = system: HS 578T breast
IGROV1 ovarian = system: IGROV1 ovarian
K-562 leukemia = system: K-562 leukemia
LOX IMVI melanoma = system: LOX IMVI melanoma
MOLT-4 leukemia = system: MOLT-4 leukemia
NCI-H23 lung = system: NCI-H23 lung
NCI/ADR-RES ovarian = system: NCI/ADR-RES ovarian
OVCAR-8 ovarian = system: OVCAR-8 ovarian
RPMI-8226 leukemia = system: RPMI-8226 leukemia
RXF 393 renal = system: RXF 393 renal
SF-268 CNS = system: SF-268 CNS
SF-295 CNS = system: SF-295 CNS
SF-539 CNS = system: SF-539 CNS
SK-MEL-28 melanoma = system: SK-MEL-28 melanoma
SNB-75 CNS = system: SNB-75 CNS
SR leukemia = system: SR leukemia
U251 CNS = system: U251 CNS
UACC-62 melanoma = system: UACC-62 melanoma

COc1cc2cc(C(=O)N3CC(CCl)c4c3cc(NC(=O)C(C)Nc3c([N+](=O)[O-])cc(C(=O)NCCN(C)C)cc3[N+](=O)[O-])c3ccccc43)[nH]c2c(OC)c1OC (stereo not drawn)
TGI (786-0 renal): 0.235 µM | TGI (A498 renal): 0.992 µM | TGI (A549 NSCLC): 0.362 µM | TGI (BT-549 breast): 0.649 µM | TGI (COLO 205 colon): 0.192 µM | TGI (DU-145 prostate): 1.03 µM | TGI (EKVX NSCLC): 1.01 µM | TGI (HCC-2998 colon): 0.16 µM | TGI (HCT-116 colon): 0.572 µM | TGI (HCT-15 colon): 2.5 µM | TGI (HOP-62 NSCLC): 0.283 µM | TGI (HOP-92 NSCLC): 0.0297 µM | TGI (HT29 colon): 0.419 µM | TGI (KM12 colon): 0.457 µM | TGI (M14 melanoma): 0.374 µM | TGI (MALME-3M melanoma): 0.27 µM | TGI (MCF7 breast): 0.127 µM | TGI (MDA-MB-231 breast): 0.342 µM | TGI (MDA-MB-435): 0.356 µM | TGI (MDA-N): 0.371 µM | TGI (NCI-H226 lung): 0.34 µM | TGI (NCI-H460 lung): 0.178 µM | TGI (NCI-H522 lung): 0.279 µM | TGI (OVCAR-3 ovarian): 0.433 µM | TGI (OVCAR-4 ovarian): 0.551 µM | TGI (OVCAR-5 ovarian): 0.544 µM | TGI (PC-3 prostate): 1.16 µM | TGI (SK-MEL-2 melanoma): 0.159 µM | TGI (SK-MEL-5 melanoma): 0.232 µM | TGI (SK-OV-3 ovarian): 2.23 µM | TGI (SN12C renal): 0.643 µM | TGI (SNB-19 CNS): 0.909 µM | TGI (SW-620 colon): 0.285 µM | TGI (TK-10 renal): 1.44 µM | TGI (UACC-257 melanoma): 0.359 µM | TGI (UO-31 renal): 3.35 µM

CN(C)CCNC(=O)c1cc(NC(=O)c2cc(NC(=O)CC/C=C3/[C@@H]4CC[C@H]3N=N4)cn2C)cn1C
TGI (786-0 renal): > 100 µM | TGI (A498 renal): > 100 µM | TGI (A549 NSCLC): > 100 µM | TGI (ACHN renal): > 100 µM | TGI (BT-549 breast): > 100 µM | TGI (CAKI-1 renal): > 100 µM | TGI (CCRF-CEM leukemia): > 100 µM | TGI (COLO 205 colon): > 100 µM | TGI (DU-145 prostate): > 100 µM | TGI (EKVX NSCLC): > 100 µM | TGI (HCC-2998 colon): > 100 µM | TGI (HCT-116 colon): > 100 µM | TGI (HCT-15 colon): > 100 µM | TGI (HL-60(TB) leukemia): > 100 µM | TGI (HOP-62 NSCLC): > 100 µM | TGI (HOP-92 NSCLC): > 100 µM | TGI (HS 578T breast): > 100 µM | TGI (HT29 colon): > 100 µM | TGI (IGROV1 ovarian): > 100 µM | TGI (K-562 leukemia): > 100 µM | TGI (KM12 colon): > 100 µM | TGI (LOX IMVI melanoma): > 100 µM | TGI (M14 melanoma): > 100 µM | TGI (MALME-3M melanoma): > 100 µM | TGI (MCF7 breast): > 100 µM | TGI (MDA-MB-231 breast): > 100 µM | TGI (MDA-MB-435): > 100 µM | TGI (MDA-N): > 100 µM | TGI (MOLT-4 leukemia): > 100 µM | TGI (NCI-H226 lung): > 100 µM | TGI (NCI-H23 lung): > 100 µM | TGI (NCI-H460 lung): > 100 µM | TGI (NCI-H522 lung): > 100 µM | TGI (NCI/ADR-RES ovarian): > 100 µM | TGI (OVCAR-3 ovarian): > 100 µM | TGI (OVCAR-4 ovarian): > 100 µM | TGI (OVCAR-5 ovarian): > 100 µM | TGI (OVCAR-8 ovarian): > 100 µM | TGI (PC-3 prostate): > 100 µM | TGI (RPMI-8226 leukemia): > 100 µM | TGI (RXF 393 renal): > 100 µM | TGI (SF-268 CNS): > 100 µM | TGI (SF-295 CNS): > 100 µM | TGI (SF-539 CNS): > 100 µM | TGI (SK-MEL-2 melanoma): > 100 µM | TGI (SK-MEL-28 melanoma): > 100 µM | TGI (SK-MEL-5 melanoma): > 100 µM | TGI (SN12C renal): > 100 µM | TGI (SNB-19 CNS): > 100 µM | TGI (SNB-75 CNS): > 100 µM | TGI (SR leukemia): > 100 µM | TGI (SW-620 colon): > 100 µM | TGI (TK-10 renal): > 100 µM | TGI (U251 CNS): > 100 µM | TGI (UACC-257 melanoma): > 100 µM | TGI (UO-31 renal): > 100 µM

CC1(C)C(=O)C=CC2(C)C1CC(O)C1(C)C2CCC2(C)C(c3ccoc3)OC(=O)C3OC321 (stereo not drawn)
TGI (786-0 renal): 28.3 µM | TGI (A498 renal): 28.8 µM | TGI (A549 NSCLC): 69.8 µM | TGI (ACHN renal): 30.3 µM | TGI (BT-549 breast): 41.1 µM | TGI (CAKI-1 renal): 31.4 µM | TGI (CCRF-CEM leukemia): 57.5 µM | TGI (COLO 205 colon): 50.3 µM | TGI (DU-145 prostate): 51.4 µM | TGI (EKVX NSCLC): 33.2 µM | TGI (HCC-2998 colon): 26.2 µM | TGI (HCT-116 colon): 31.7 µM | TGI (HCT-15 colon): 23.6 µM | TGI (HOP-62 NSCLC): 85.7 µM | TGI (HOP-92 NSCLC): 38.5 µM | TGI (HT29 colon): 33.7 µM | TGI (IGROV1 ovarian): 33.9 µM | TGI (K-562 leukemia): > 100 µM | TGI (KM12 colon): 28.7 µM | TGI (LOX IMVI melanoma): 38.9 µM | TGI (M14 melanoma): > 100 µM | TGI (MCF7 breast): > 100 µM | TGI (MDA-MB-231 breast): 36.7 µM | TGI (MDA-MB-435): 72.7 µM | TGI (MDA-N): 41.8 µM | TGI (MOLT-4 leukemia): 27.2 µM | TGI (NCI-H226 lung): 33.3 µM | TGI (NCI-H23 lung): 28.6 µM | TGI (NCI-H460 lung): 27.6 µM | TGI (NCI-H522 lung): 27.1 µM | TGI (NCI/ADR-RES ovarian): 30.5 µM | TGI (OVCAR-3 ovarian): 36 µM | TGI (OVCAR-4 ovarian): 38.4 µM | TGI (OVCAR-5 ovarian): > 100 µM | TGI (OVCAR-8 ovarian): 26.8 µM | TGI (PC-3 prostate): > 100 µM | TGI (RPMI-8226 leukemia): 47.9 µM | TGI (RXF 393 renal): 33.6 µM | TGI (SF-295 CNS): 53.1 µM | TGI (SK-MEL-2 melanoma): 35.1 µM | TGI (SK-MEL-28 melanoma): 70.3 µM | TGI (SK-MEL-5 melanoma): 21.8 µM | TGI (SK-OV-3 ovarian): > 100 µM | TGI (SN12C renal): 37.4 µM | TGI (SNB-19 CNS): 44.3 µM | TGI (SNB-75 CNS): 39.5 µM | TGI (SW-620 colon): 59.9 µM | TGI (TK-10 renal): 37.5 µM | TGI (U251 CNS): 40.5 µM | TGI (UACC-62 melanoma): 26.9 µM | TGI (UO-31 renal): 25.8 µM

COc1cc2oc(=O)cc(C)c2cc1OC
TGI (786-0 renal): > 100 µM | TGI (A498 renal): > 100 µM | TGI (A549 NSCLC): > 100 µM | TGI (ACHN renal): > 100 µM | TGI (CCRF-CEM leukemia): > 100 µM | TGI (COLO 205 colon): > 100 µM | TGI (DU-145 prostate): > 100 µM | TGI (EKVX NSCLC): > 100 µM | TGI (HCT-116 colon): > 100 µM | TGI (HCT-15 colon): > 100 µM | TGI (HOP-62 NSCLC): > 100 µM | TGI (HS 578T breast): > 100 µM | TGI (HT29 colon): > 100 µM | TGI (IGROV1 ovarian): > 100 µM | TGI (K-562 leukemia): > 100 µM | TGI (KM12 colon): > 100 µM | TGI (LOX IMVI melanoma): > 100 µM | TGI (M14 melanoma): > 100 µM | TGI (MALME-3M melanoma): > 100 µM | TGI (MCF7 breast): > 100 µM | TGI (MDA-MB-231 breast): > 100 µM | TGI (MDA-MB-435): > 100 µM | TGI (MDA-N): > 100 µM | TGI (MOLT-4 leukemia): > 100 µM | TGI (NCI-H226 lung): > 100 µM | TGI (NCI-H23 lung): > 100 µM | TGI (NCI/ADR-RES ovarian): > 100 µM | TGI (OVCAR-3 ovarian): > 100 µM | TGI (OVCAR-4 ovarian): > 100 µM | TGI (OVCAR-5 ovarian): > 100 µM | TGI (OVCAR-8 ovarian): > 100 µM | TGI (PC-3 prostate): > 100 µM | TGI (RPMI-8226 leukemia): > 100 µM | TGI (SF-268 CNS): > 100 µM | TGI (SF-295 CNS): > 100 µM | TGI (SF-539 CNS): > 100 µM | TGI (SK-MEL-2 melanoma): > 100 µM | TGI (SK-MEL-28 melanoma): > 100 µM | TGI (SK-MEL-5 melanoma): > 100 µM | TGI (SK-OV-3 ovarian): > 100 µM | TGI (SN12C renal): > 100 µM | TGI (SNB-19 CNS): > 100 µM | TGI (SNB-75 CNS): > 100 µM | TGI (SR leukemia): > 100 µM | TGI (SW-620 colon): > 100 µM | TGI (TK-10 renal): > 100 µM | TGI (U251 CNS): > 100 µM | TGI (UACC-257 melanoma): > 100 µM | TGI (UACC-62 melanoma): > 100 µM | TGI (UO-31 renal): > 100 µM
